Article PMC12526218, “Design, Synthesis and Herbicidal Activity of 1,2,4-Oxadiazole Compounds as Novel Light-Dependent Protochlorophyllide Oxidoreductase Inhibitors” (Molecules, 2025)

The molecules below were run against Light-dependent protochlorophyllide oxidoreductase (AtLPOR) (assay: Plant LPOR ELISA kit on Arabidopsis leaf extract, IC50).
Format: biochemical, Arabidopsis thaliana
In the case of `c1ccc(COCc2nc(-c3ccc(OCc4ccccc4)cc3)no2)cc1` [5q, 5-((benzyloxy)methyl)-3-(4-(benzyloxy)phenyl)-1,2,4-oxadiazole], the IC50 is reported as 17.6 µM. In the case of `O=[N+]([O-])c1cccc(-c2noc(COCc3ccccc3)n2)c1` [5k, 5-((benzyloxy)methyl)-3-(3-nitrophenyl)-1,2,4-oxadiazole], the IC50 is reported as 83.6 µM. `O=[N+]([O-])c1ccc(-c2noc(COCc3ccccc3)n2)cc1` [5j, 5-((benzyloxy)methyl)-3-(4-nitrophenyl)-1,2,4-oxadiazole] gave an IC50 of 111 µM.
